# In PubChem BioAssay (NCI):
#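 Compound exposure: 48 hours, 5 concentrations, 96-well plates. TGI marks complete inhibition of growth.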
# Legend:
# Assay in all cases: growth of human tumour cells (NCI), 48 h
# [1] = system: A549 NSCLC
# [2] = system: HCT-116 colon
# [3] = system: IGROV1 ovarian
# [4] = system: K-562 leukemia
# [5] = system: MCF7 breast
# [6] = system: MDA-MB-435
# [7] = system: NCI-H226 lung
# [8] = system: NCI/ADR-RES ovarian
# [9] = system: OVCAR-3 ovarian
# [10] = system: SN12C renal
# [11] = system: SNB-19 CNS
# [12] = system: SR leukemia
# [13] = system: UO-31 renal
structure (smiles),measurement,setting,value
COC(=O)C1c2c(c3ccccc3n2C(=O)OC)CCN2CCC1C(S(=O)(=O)c1ccccc1)C2=O (centres undefined),TGI,[1],> 100 µM
same,TGI,[2],> 100 µM
same,TGI,[3],> 100 µM
same,TGI,[4],> 100 µM
same,TGI,[5],> 100 µM
same,TGI,[6],> 100 µM
same,TGI,[7],> 100 µM
same,TGI,[8],> 100 µM
same,TGI,[9],> 100 µM
same,TGI,[10],> 100 µM
same,TGI,[11],> 100 µM
same,TGI,[12],> 100 µM
same,TGI,[13],> 100 µM
CCN(CC)CCCn1c(=O)c2ccccc2n2c3c(=O)n(C)c(=O)n(C)c3nc12,TGI,[1],10.4 µM
same,TGI,[2],21.6 µM
same,TGI,[3],26.2 µM
same,TGI,[4],33.6 µM
same,TGI,[5],> 100 µM
same,TGI,[6],27.5 µM
same,TGI,[7],14.3 µM
same,TGI,[8],47.2 µM
same,TGI,[9],33.6 µM
same,TGI,[10],18.6 µM
same,TGI,[11],35.3 µM
same,TGI,[12],3.37 µM
same,TGI,[13],17.7 µM
COc1cc(/C=C2/SC(c3ccccc3)N(c3ccccc3)C2=O)cc(OC)c1OC (centres undefined),TGI,[1],> 100 µM
same,TGI,[2],> 100 µM
same,TGI,[4],> 100 µM
same,TGI,[5],> 100 µM
same,TGI,[6],> 100 µM
same,TGI,[7],> 100 µM
same,TGI,[8],> 100 µM
same,TGI,[9],> 100 µM
same,TGI,[10],> 100 µM
same,TGI,[11],> 100 µM
same,TGI,[12],> 100 µM
same,TGI,[13],> 100 µM
Cc1cc(-c2nc3ccccc3s2)ccc1N,TGI,[1],> 100 µM
same,TGI,[2],> 78.7 µM
same,TGI,[3],> 100 µM
same,TGI,[4],> 86 µM
same,TGI,[5],> 100 µM
same,TGI,[6],> 79.8 µM
same,TGI,[7],> 92 µM
same,TGI,[8],> 87.6 µM
same,TGI,[9],> 86.6 µM
same,TGI,[10],> 77.9 µM
same,TGI,[11],> 100 µM
same,TGI,[12],> 89.8 µM
same,TGI,[13],88.3 µM
Cc1nc2c(nc1C)-c1c(c3c(n1C)C(=O)CCC3)C(=O)C2=O,TGI,[1],4.56 µM
same,TGI,[2],1.44 µM
same,TGI,[3],1.48 µM
same,TGI,[4],> 100 µM
same,TGI,[5],0.358 µM
same,TGI,[6],0.353 µM
same,TGI,[7],2.77 µM
same,TGI,[8],2.05 µM
same,TGI,[9],0.646 µM
same,TGI,[10],0.52 µM
same,TGI,[11],2.82 µM
same,TGI,[12],0.769 µM
same,TGI,[13],1.29 µM
c1ccc(P(CCP(c2ccccn2)c2ccccn2)c2ccccc2)cc1,TGI,[1],> 100 µM
same,TGI,[2],> 100 µM
same,TGI,[4],> 100 µM
same,TGI,[5],> 100 µM
same,TGI,[6],> 100 µM
same,TGI,[7],> 100 µM
same,TGI,[8],> 100 µM
same,TGI,[10],> 100 µM
same,TGI,[11],> 100 µM
same,TGI,[12],> 100 µM
same,TGI,[13],> 100 µM
CC(C)OP(=O)(OC(C)C)/C(C#N)=C/c1ccco1,TGI,[1],> 100 µM
same,TGI,[2],> 100 µM
same,TGI,[3],> 100 µM
same,TGI,[4],> 100 µM
same,TGI,[5],> 100 µM
same,TGI,[6],> 100 µM
same,TGI,[7],> 100 µM
same,TGI,[8],> 100 µM
same,TGI,[9],> 100 µM
same,TGI,[10],> 100 µM
same,TGI,[11],> 100 µM
same,TGI,[12],> 100 µM
same,TGI,[13],9.38 µM
O=C(N/N=C/c1ccc([N+](=O)[O-])o1)c1ccc(C(=O)N/N=C/c2ccc([N+](=O)[O-])o2)cc1,TGI,[1],> 100 µM
same,TGI,[2],> 100 µM
same,TGI,[3],> 100 µM
same,TGI,[4],> 100 µM
same,TGI,[5],48.9 µM
same,TGI,[6],30.9 µM
same,TGI,[7],> 100 µM
same,TGI,[8],> 100 µM
same,TGI,[9],73.9 µM
same,TGI,[10],> 100 µM
same,TGI,[11],> 100 µM
same,TGI,[12],> 100 µM
same,TGI,[13],> 100 µM
CC(C)(C)OC(=O)N(O)CCCn1cnc2c(N)ncnc21,TGI,[1],> 100 µM
same,TGI,[2],> 100 µM
same,TGI,[3],> 100 µM
same,TGI,[4],> 100 µM
same,TGI,[5],> 100 µM
same,TGI,[6],> 100 µM
same,TGI,[7],> 100 µM
same,TGI,[8],> 100 µM
same,TGI,[9],> 100 µM
same,TGI,[10],> 100 µM
same,TGI,[11],> 100 µM
same,TGI,[12],> 100 µM
same,TGI,[13],> 100 µM
